Results as given in patent publication US12208088B2 (Genentech, Inc., priority 2018, dated 2025).

These compounds were tested against HPK1 (Homo sapiens (Human), UniProt Q92918) (assay: HPK1 Lantha binding assay ("Lanth")). Settings: binding assays; Morrison Ki fit.
Method in brief: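 TR-FRET binding competition using 2 nM HPK1, 2 nM Eu-anti-GST antibody and 15 nM Tracer222 at 23 °C. Compound was incubated 1 h with enzyme and antibody, then 1 h after tracer addition, with an 11-point 5-fold dilution series. Ki obtained from a Morrison fit that corrects for tracer concentration and Kd.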

Chain of HPK1 (Q92918 1-346 limits assumed): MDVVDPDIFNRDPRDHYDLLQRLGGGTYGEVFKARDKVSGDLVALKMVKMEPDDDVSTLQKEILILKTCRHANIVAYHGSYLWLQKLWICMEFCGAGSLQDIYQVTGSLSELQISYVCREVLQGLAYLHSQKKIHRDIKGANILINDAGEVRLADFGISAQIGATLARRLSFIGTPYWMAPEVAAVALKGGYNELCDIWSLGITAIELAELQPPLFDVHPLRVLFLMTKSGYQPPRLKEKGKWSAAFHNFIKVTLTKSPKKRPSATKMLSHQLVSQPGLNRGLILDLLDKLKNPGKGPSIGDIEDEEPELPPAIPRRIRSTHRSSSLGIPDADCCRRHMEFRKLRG

Structure (SMILES) | Ki
CN(C)C(=O)c1c(N)ccc(-c2cnc3c(c2Cl)C2(CN3)Cc3ccncc3C2)c1F (stereo not drawn) [Compound 40, 6-Amino-3-(4′-chloro-1′,2′,5,7-tetrahydrospiro[cyclopenta[c]pyridine-6,3′-pyrrolo[2,3-b]pyridin]-5′-yl)-2-fluoro-N,N-dimethylbenzamide] | 15.3 nM
CN(C)C(=O)c1c(N)ccc(-c2cnc3c(c2)C2(CNC(=O)C2)CN3)c1F (stereo not drawn) [Compound 79, 6-Amino-2-fluoro-N,N-dimethyl-3-(5-oxo-1′,2′-dihydrospiro[pyrrolidine-3,3′-pyrrolo[2,3-b]pyridin]-5′-yl)benzamide] | 659 nM
Cc1n[nH]cc1-c1cnc2c(c1Cl)C1(CC=CC1)CN2 [Compound 308, 4′-Chloro-5′-(3-methyl-1H-pyrazol-4-yl)-1′,2′-dihydrospiro[cyclopentane-1,3′-pyrrolo[2,3-b]pyridin]-3-ene] | 186 nM
Nc1ccc(-c2cnc3c(c2Cl)C2(CC2)CN3)cc1C(=O)N1C2CCC1CC2 [Compound 32, (2-Amino-5-(4′-chloro-1′,2′-dihydrospiro[cyclopropane-1,3′-pyrrolo[2,3-b]pyridin]-5′-yl)phenyl)(7-azabicyclo[2.2.1]heptan-7-yl)methanone] | 12.8 nM
COCCn1cc(-c2cnc3c(c2Cl)C2(CC=CC2)CN3)cn1 [Compound 327, 4′-Chloro-5′-(1-(2-methoxyethyl)-1H-pyrazol-4-yl)-1′,2′-dihydrospiro[cyclopentane-1,3′-pyrrolo[2,3-b]pyridin]-3-ene] | 397 nM
O=C1NCCN1c1cccc(-c2cnc3c(c2)C2(CC2)CN3)n1 [Compound 71, 1-(6-(1′,2′-Dihydrospiro[cyclopropane-1,3′-pyrrolo[2,3-b]pyridin]-5′-yl)pyridin-2-yl)imidazolidin-2-one] | 115 nM
CC1(C)C(=O)Nc2ccc(-c3cnc4c(c3)C3(CC3)CN4)cc21 [Compound 13, 5-(1′,2′-dihydrospiro[cyclopropane-1,3′-pyrrolo[2,3-b]pyridin]-5′-yl)-3,3-dimethylindolin-2-one] | 21.6 nM
Nc1cc(-c2cnc3c(c2)C2(CC2)CN3)nc(N2CCCOC2=O)n1 [Compound 289, 3-(4-amino-6-(1′,2′-dihydrospiro[cyclopropane-1,3′-pyrrolo[2,3-b]pyridin]-5′-yl)pyrimidin-2-yl)-1,3-oxazinan-2-one] | 215 nM
c1cc(-c2cnc3c(c2)C2(CC2)CN3)cc(-c2nnn3c2CNCC3)c1 [Compound 72, 5′-(3-(4,5,6,7-Tetrahydro-[1,2,3]triazolo[1,5-a]pyrazin-3-yl)phenyl)-1′,2′-dihydrospiro[cyclopropane-1,3′-pyrrolo[2,3-b]pyridine]] | 279 nM
CN(C)C(=O)c1c(N)ccc(-c2cnc3c(c2Cl)C2(CN3)CC2CO)c1F (stereo not drawn) [Compound 39, 6-Amino-3-(4′-chloro-2-(hydroxymethyl)-1′,2′-dihydrospiro[cyclopropane-1,3′-pyrrolo[2,3-b]pyridin]-5′-yl)-2-fluoro-N,N-dimethylbenzamide] | 17.2 nM
c1ccc2c(c1)nnn2-c1cnc2c(c1)C1(CC1)CN2 [Compound 332, 5-(Benzotriazol-1-yl)spiro[1,2-dihydropyrrolo[2,3-b]pyridine-3,1′-cyclopropane]] | 570 nM
CN(C)C(=O)c1ccc2[nH]cc(-c3cnc4c(c3)C3(CC3)CN4)c2c1 [Compound 339, 3-(1′,2′-Dihydrospiro[cyclopropane-1,3′-pyrrolo[2,3-b]pyridin]-5′-yl)-N,N-dimethyl-1H-indole-5-carboxamide] | 373 nM
CC(=O)NCCc1ccc(-c2cnc3c(c2Cl)C2(CC=CC2)CN3)cc1 [Compound 213, N-(4-(4′-chloro-1′,2′-dihydrospiro[cyclopentane-1,3′-pyrrolo[2,3-b]pyridin]-3-en-5′-yl)phenethyl)acetamide] | 286 nM
O=C1COCCN1c1cccc(-c2cnc3c(c2)C2(CC2)CN3)c1 [Compound 3, 4-(3-(1′,2′-Dihydrospiro[cyclopropane-1,3′-pyrrolo[2,3-b]pyridin]-5′-yl)phenyl)morpholin-3-one] | 40.3 nM
OCc1ccc(-c2cnc3c(c2Cl)C2(CC=CC2)CN3)cc1 [Compound 181, (4-(4′-Chloro-1′,2′-dihydrospiro[cyclopentane-1,3′-pyrrolo[2,3-b]pyridin]-3-en-5′-yl)phenyl)methanol] | 198 nM
CN(C)C(=O)c1c(N)ccc(-c2cnc3c(c2Cl)C2(CCC(=CC#N)C2)CN3)c1F (stereo not drawn) [Compound 104, 6-Amino-3-(4′-chloro-3-(cyanomethylene)-1′,2′-dihydrospiro[cyclopentane-1,3′-pyrrolo[2,3-b]pyridin]-5′-yl)-2-fluoro-N,N-dimethylbenzamide] | 13.1 nM
CN(c1ccc2c(-c3cnc4c(c3)C3(CC3)CN4)c[nH]c2c1)c1cnn(C)c1 [Compound 343, 3-(1′,2′-Dihydrospiro[cyclopropane-1,3′-pyrrolo[2,3-b]pyridin]-5′-yl)-N-methyl-N-(1-methyl-1H-pyrazol-4-yl)-1H-indol-6-amine] | 74 nM
Nc1cc(-c2cnc3c(c2Cl)C2(CC2)CN3)cc(-c2ncccc2CO)c1 [Compound 34, (2-(3-Amino-5-(4′-chloro-1′,2′-dihydrospiro[cyclopropane-1,3′-pyrrolo[2,3-b]pyridin]-5′-yl)phenyl)pyridin-3-yl)methanol] | 6.15 nM
Nc1cc(-c2cnc3c(c2Cl)C2(CCC(O)C2)CN3)cc(-c2ncccc2CO)c1 (stereo not drawn) [Compound 61, 5′-(3-Amino-5-(3-(hydroxymethyl)pyridin-2-yl)phenyl)-4′-chloro-1′,2′-dihydrospiro[cyclopentane-1,3′-pyrrolo[2,3-b]pyridin]-3-ol] | 12.8 nM
O=C1NCCCN1c1cccc(-c2cnc3c(c2)C2(CC2)CN3)n1 [Compound 70, 1-(6-(1′,2′-Dihydrospiro[cyclopropane-1,3′-pyrrolo[2,3-b]pyridin]-5′-yl)pyridin-2-yl)tetrahydropyrimidin-2(1H)-one] | 102 nM
Cc1cc2[nH]cc(-c3cnc4c(c3)C3(CC3)CN4)c2cc1-c1cnn(C)c1 [Compound 336, 5′-(6-Methyl-5-(1-methyl-1H-pyrazol-4-yl)-1H-indol-3-yl)-1′,2′-dihydrospiro[cyclopropane-1,3′-pyrrolo[2,3-b]pyridine]] | 46.6 nM
CC(=O)NC1CCC2(CNc3ncc(-c4ccc(N)c(C(=O)N(C)C)c4F)c(Cl)c32)C1 (stereo not drawn) [Compound 83, 3-(3-Acetamido-4′-chloro-1′,2′-dihydrospiro[cyclopentane-1,3′-pyrrolo[2,3-b]pyridin]-5′-yl)-6-amino-2-fluoro-N,N-dimethylbenzamide] | 208 nM
CN(C)C(=O)c1c(N)ccc(-c2cnc3c(c2)C2(CN3)C3COCC32)c1F (stereo not drawn) [Compound 26, 6-amino-3-(1′,2′-dihydro-3-oxaspiro[bicyclo[3.1.0]hexane-6,3′-pyrrolo[2,3-b]pyridin]-5′-yl)-2-fluoro-N,N-dimethylbenzamide] | 446 nM

Continued, values first:

Ki | Structure (SMILES)
2.84 nM | Cc1cnn([C@H]2CC[C@@]3(CNc4ncc(-c5ccc(N)c(C(=O)N(C)C)c5F)c(Cl)c43)C2)n1 (relative stereo) [Compound 114a, 6-Amino-3-((1R,3S)-4′-chloro-3-(4-methyl-2H-1,2,3-triazol-2-yl)-1′,2′-dihydrospiro[cyclopentane-1,3′-pyrrolo[2,3-b]pyridin]-5′-yl)-2-fluoro-N,N-dimethylbenzamide]
0.91 nM | Cn1cccc(-c2cccc(-c3cnc4c(c3Cl)[C@@]3(CC[C@@](C)(C(N)=O)C3)CN4)c2)c1=O (single isomer, unassigned) [Compound 179b]
37.1 nM | CN(C)C(=O)c1c(N)ccc(-c2cnc3c(c2Cl)[C@@]2(CC[C@@](C)(C#N)C2)CN3)c1F (single isomer, unassigned) [Compound 261b]
6.23 nM | CN(C)C(=O)c1cccc(-c2cnc3c(c2Cl)[C@]2(CC[C@](C)(C(N)=O)C2)CN3)c1F (single isomer, unassigned) [Compound 195b]
2.07 nM | CN(C)C(=O)c1c(N)ccc(-c2cnc3c(c2Cl)[C@]2(CC[C@H](C(N)=O)C2)CN3)c1F (relative stereo) [Compound 84c, (1R,3S)-5′-(4-amino-3-(dimethylcarbamoyl)-2-fluorophenyl)-4′-chloro-1′,2′-dihydrospiro[cyclopentane-1,3′-pyrrolo[2,3-b]pyridine]-3-carboxamide]
63.5 nM | CN(C)C(=O)c1c(N)ccc(-c2cnc3c(c2Cl)[C@]2(CC[C@H](C(N)=O)C2)CN3)c1F (single isomer, unassigned) [Compound 100a]
9.05 nM | CCC[C@@H]1C[C@]12CNc1ncc(-c3ccc(N)c(C(=O)N(C)C)c3F)cc12 (single isomer, unassigned) [Compound 217b]
51.8 nM | CN(C)C(=O)c1c(N)ccc(-c2cnc3c(c2Cl)[C@]2(CC[C@H](n4ccnn4)C2)CN3)c1F [Compound 90a]
124 nM | CN(C)C(=O)c1c(N)ccc(-c2cnc3c(c2)[C@]2(CN3)C[C@@H](C#N)C2)c1F [Compound 96a]
23.1 nM | CN(C)C(=O)c1c(N)ccc(-c2cnc3c(c2Cl)[C@]2(CC[C@@H](n4nccn4)C2)CN3)c1F [Compound 89c, 6-Amino-3-((1R,3R)-4′-chloro-3-(2H-1,2,3-triazol-2-yl)-1′,2′-dihydrospiro[cyclopentane-1,3′-pyrrolo[2,3-b]pyridin]-5′-yl)-2-fluoro-N,N-dimethylbenzamide]
582 nM | Cn1cc([C@@H]2CCCN2C(=O)c2cccc(-c3cnc4c(c3)C3(CC3)CN4)c2F)cn1 (single isomer, unassigned) [Compound 174b]
39.1 nM | Nc1cc(-c2cnc3c(c2Cl)[C@]2(CC[C@H](O)C2)CN3)cc(-c2ncccc2CO)c1 (single isomer, unassigned) [Compound 61a]
69.3 nM | Cc1cc(C)n([C@H]2CC[C@@]3(CNc4ncc(-c5ccc(N)c(C(=O)N(C)C)c5F)c(Cl)c43)C2)n1 (relative stereo) [Compound 163a, 6-Amino-3-((1R,3S)-4′-chloro-3-(3,5-dimethyl-1H-pyrazol-1-yl)-1′,2′-dihydrospiro[cyclopentane-1,3′-pyrrolo[2,3-b]pyridin]-5′-yl)-2-fluoro-N,N-dimethylbenzamide]
